{"source": "patent US20250361485A1", "about": "“MODIFIED CD4+ T CELLS EXPRESSING IL-37 AND METHODS OF USE THEREOF” (The Regents of the University of Colorado, A Body Corporate, priority 2022, published 2025)", "type_in_all_cases": "cell-based", "key": {"[1]": {"system": "p-SMAD3 S208", "assay": "Immunoblotting of cytoplasmic and nuclear proteins of human Treg cells after flavopiridol", "conditions": "immunoblot", "experimental": "For immunoblot analysis, cells were lysed in RIPA buffer (50 mM Tris-HCL pH 7.4, 150 mM NaCl, 1 mM PMSF, 1 mM EDTA, 5 μg/ml Aprotinin, […] Leupeptin, 1% Triton x-100, 1% Sodium deoxycholate, 0.1% SDS) (Sigma-Aldrich). For IP of Smad3, cells were lysed in Pierce® IP Lysis Buffer (Thermo) and prepared using the Thermo Immunoprecipitation containing Dynabeads™ Protein G kit according to the manufacturer's instructions. The Smad3 IP was performed using the rabbit monoclonal antibody against Smad3 (C67H9) (Thermo). Hsp90 IP using mouse monoclonal antibody against Hsp90 (610418) (BD Biosciences). 20 μg of sample was run on a 4-15% Mini-Protean TGX precast gel (Bio-Rad) and then transferred overnight at 4° C. and 30 V to a PVDF membrane using a Bio-Rad Trans-Blot® transfer cell. Following 1 h of blocking with blocking buffer (5% milk/Tween 20 in TBS), membranes were incubated with primary antibody overnight at 4° C. For siRNA knockdown blots, mouse β-actin monoclonal antibody (Sigma-Aldrich) at a dilution of 1:10,000 was used for the loading control. For Smad3 IP, rabbit anti-human IL-37 (IL-1F7) polyclonal antibody (Invitrogen, Thermo) at a dilution of 1:1000 was used to detect IL37. HRP-conjugated anti-rabbit (1:5000) and anti-mouse IgG (1:5000) were purchased from Sigma-Aldrich. The SuperSignal West Pico Kit (Thermo Fisher) was used according to the manufacturer's instructions for the chemiluminescent detection of the proteins. Protein expression was further analyzed by measuring the relative densities using FIJI (National Institutes of Health: http://rsb.info.nih.gov/ij/) or LI-COR Image Studio™ Software.\nTherefore, cytoplasmic and nuclear proteins of primary human Treg cells was scrutinized following flavopiridol treatment to ascertain if p-SMAD3 S208 is essential for the nuclear localization of SMAD3 and IL-37."}, "[2]": {"system": "FOXP3", "assay": "FOXP3 expression in human Treg / CD4+ T cells treated with SMAD3 inhibitors", "conditions": "for FOXP3 mRNA expression: purified human Treg cells", "excerpt": "p-SMAD3 […]/425 is recognized for its involvement in TGFβ signaling. […] Given the essential role of SMAD3 phosphorylation in nuclear localization and transcriptional activity controlling other genes, the phosphorylation status and its association with IL-37 in human Treg cells was examined (FIG. 24A). Inhibitors of […]/425 sites (SIS3) and […]/[…] sites (flavopiridol) were utilized to determine if they could decrease FOXP3 mRNA expression and disrupt the SMAD3/IL-37 interaction. […] These findings also point to a crucial interplay between p-SMAD3 […] and IL-37 in orchestrating the transcriptional regulation of FOXP3 in human Treg cells."}, "[3]": {"system": "caspase-1", "assay": "Caspase-1 inhibition in human Treg / CD4+ T cells", "conditions": "50 μM", "experimental": "For proximity ligation assay (PLA) experiments, after primary antibodies were washed out, cells were incubated for 1 h at 37° C. with an anti-rabbit PLUS probe (1:5 dilution; Duo92002; Sigma-Aldrich) anti-mouse MINUS probe (1:5 dilution; Duo92004; Sigma-Aldrich) and were washed two times with wash buffer A. Probes were then ligated for 30 min at 37° C. and washed two times in Buffer A and were amplified for 100 min at 37° C. in the dark with polymerase (Sigma-Aldrich). For flow-based PLA (Sigma-Aldrich), after amplification, cells were treated with 1× green detection buffer for 30 min at 37° C., then washed 2× with PLA wash buffer and prepared for flow analysis. After 2 washes with 1× Buffer B (Thermo Fisher), each well was added with ProLong™ Gold antifade reagent (Thermo Fisher) containing DAPI nuclear stain. Images were obtained with an Olympus FV1000 FCS/RICS system (Olympus, Tokyo, Japan). For analysis, 7 different 100×/1.4 Oil Plan-Apochromatic objective fields of view were imaged per well per experiment. Each field was measured for IL-37 fluorescence intensity using the FIJI measurement application. To analyze the cytoplasmic vs. nuclear localization of IL-37 within the T cells, DAPI and IL-37 overlapped images was used. Along with single-slice full field images, […] slice z-stack images were taken to confirm cytoplasmic vs. nuclear localization of IL-37. Colocalization of IL-37 and DAPI was assessed by Pearson's correlation coefficient using FIJI. Line intensity profiles were created using a Plot profile in FIJI to measure differences in fluorescence across a cell by drawing a line spanning the diameter of the cell, and then the staining intensity measurements across the line were then entered into Prism 8 (GraphPad, Lo Jolla, CA). 3D fluorescent maps were created using a Surface plot in FIJI.\nPurified lymphocytes from either humans or mice were washed with FACS buffer (5% BSA (Sigma-Aldrich) and 1×PBS), and then prepared for surface or intracellular staining, as described (Osborne and Wetzel, 2012). For surface staining, 1 μg or the manufacturer-recommended amounts of fluorescently conjugated antibody specific to the surface marker to be visualized was added to 1×10^6 cells resuspended in 100 μl of FACS buffer for 30 min at 4° C., then washed 2× with FACS buffer prior to being either analyzed or further processed. […] For measuring proliferation, cells were stained with 5-μM CFSE (Molecular Probes, Eugene, OR) prior to cell culture and analyzed using flow cytometry. […]"}, "[4]": {"system": "FOXP3", "assay": "siRNA knockdown in primary human T cells, FOXP3 and marker expression", "conditions": "siRNA 48 h prior", "experimental": "Purified primary human CD4+ T cells were used for siRNA knockdown of RUNX1, RPTOR, IL37, CREB1, CHK1, NLRP2, NLRP3, NLRP4, ASC, and NLRC4, and CD4+CD25+CD127^dim T cells for siRNA knockdown of FOXP3 and IL37. Cells were purified from healthy donor PBMCs as described above and then placed in culture in complete RPMI 1640 for at least 2 h prior to siRNA transfection via nucleofection using the Amaxa P3 Primary Cell 4D-Nucleofector X Kit L (Lonza) following the manufacturer's instructions. For the knockdown of RPTOR and IL-37, three different siRNAs (30 nM) against RPTOR and IL-37: A, B, and C (OriGene, Rockville, MD) were used separately or pooled, whereas for FOXP3 knockdown, only the pool of three different siRNAs (30 nM) against FOXP3: A, B, and C (OriGene) was used due to a limited number CD4+CD25+CD127^dim T cells. For the knockdown of NLRP3A, three to four siRNAs were pooled together, and for NLRC4 and NLRP4, Dharmacon SMARTpool was used. Single-sense and anti-sense siRNAs were used for NLRP2 and ASC (Ambion). Scrambled siRNA (OriGene, Ambion, and Dharmacon) was used as a control. Knockdowns were confirmed 24 hours after nucleofection by qRT-PCR or 48 hours later by western blot, and the relative density of the protein bands was determined using FIJI. […]"}, "[5]": {"system": "human Treg cells", "assay": "CD25+FOXP3+ frequency in human Treg cells cultured with IL-6", "conditions": "anti-TCR/CD28, IL-6 20 ng/ml", "experimental": "Purified lymphocytes from either humans or mice were washed with FACS buffer (5% BSA (Sigma-Aldrich) and 1×PBS), and then prepared for surface or intracellular staining, as described (Osborne and Wetzel, 2012). For surface staining, 1 μg or the manufacturer-recommended amounts of fluorescently conjugated antibody specific to the surface marker to be visualized was added to 1×10^6 cells resuspended in 100 μl of FACS buffer for 30 min at 4° C., then washed 2× with FACS buffer prior to being either analyzed or further processed. For intracellular cytokine staining (ICS), the FOXP3 Cytoperm/Cytofix staining kit (BD Pharmingen, San Diego, CA) was used after cells were stimulated for 24 h on 1 μg/ml anti-CD3-coated plates with soluble 1 μg/ml anti-CD28 antibody or anti-CD3/CD28 conjugated Dynabeads™ (Gibco, Thermo Fisher). For measuring proliferation, cells were stained with 5-μM CFSE (Molecular Probes, Eugene, OR) prior to cell culture and analyzed using flow cytometry. Flow-based measurement of caspase-1 activation was done using the FAM-FLICA® Caspase-1 Assay kit #98 following the manufacturer's instructions (ImmunoChemistry Tech, Bloomington, MN). […] All acquisitions were performed on a Galios® or Galios® 561 cytometer equipped with Kaluza software (Beckman-Coulter, Indianapolis, IN), and all data were analyzed with FlowJo_V10 software (Tree Star, Ashland, OR)."}}}
{"compound": "CN1CC[C@H](c2c(O)cc(O)c3c(=O)cc(-c4ccccc4Cl)oc23)[C@H](O)C1", "note": "[flavopiridol]", "values": [{"measurement": "expression of IL-37 in the nucleus", "setting": "[1]", "result": "abolished"}, {"measurement": "nuclear SMAD3 levels", "setting": "[1]", "result": "lowered"}, {"measurement": "nuclear levels of FOXP3", "setting": "[1]", "result": "reduced"}, {"measurement": "p-SMAD3 S208", "setting": "[1]", "result": "diminished"}, {"measurement": "FOXP3 protein expression, fold decrease compared to control cells", "setting": "[2]; primary human CD4+ T cells, not rescued by TGF-β", "result": "~2", "unit": "fold"}, {"measurement": "FOXP3 mRNA expression", "setting": "[2]", "result": "almost completely obliterated"}]}
{"compound": "COc1cc2c(cc1OC)CN(C(=O)/C=C/c1c(-c3ccccc3)n(C)c3ncccc13)CC2", "note": "[SIS3]", "values": [{"measurement": "FOXP3 protein expression", "setting": "[2]; primary human CD4+ T cells", "result": "did not significantly decrease"}, {"measurement": "FOXP3 mRNA expression", "setting": "[2]", "result": "did not significantly alter"}]}
{"compound": "Ac-YVAD-CMK", "values": [{"measurement": "FOXP3 mRNA and protein expression", "setting": "[3]; human CD4+ T cells", "result": "reduction"}, {"measurement": "decrease of interaction between IL-37 and p-SMAD3 S208", "setting": "[3]; human Treg cells", "result": 36.5, "unit": "%"}, {"measurement": "IL-37 subcellular localization", "setting": "[3]; human Treg cells, 24 h", "result": "shift of IL-37 localization from the nucleus to the perinuclear region of the cytoplasm"}, {"measurement": "IL-37 expression", "setting": "[3]; human Treg cells, 48 h", "result": "without alteration"}]}
{"compound": "CREB1: siRNA against CREB1 (Ambion), SEQ ID NO: 8-9 (chain 1 CCGUAACUCUAGUACAGCU; chain 2 AGCUGUACUAGAGUUACGG; listed as RNA, chemistry not given here)", "values": [{"measurement": "frequency of FOXP3+ T cells in CD4+ T cells after knockdown", "setting": "[4]", "result": "significant decline"}]}
{"compound": "RUNX1: siRNA against RUNX1 (Ambion), SEQ ID NO: 34-35 (chain 1 AGAACCAGGUUGCAAGAUU; chain 2 AAUCUUGCAACCUGGUUCU; listed as RNA, chemistry not given here)", "values": [{"measurement": "frequency of FOXP3+ T cells in CD4+ T cells after knockdown", "setting": "[4]", "result": "significant decline"}]}
{"compound": "IL-6: IL-6 (Peprotech), 20 ng/ml, added as inflammatory stimulus to Treg cultures", "values": [{"measurement": "decrease in frequency of CD25+FOXP3+ cells", "setting": "[5]; gated IL37hi human Treg cells", "result": "no such reduction"}, {"measurement": "decrease in frequency of CD25+FOXP3+ cells", "setting": "[5]; gated IL-37lo human Treg cells", "result": 34, "unit": "%"}]}
